Source: US8101180B2, “Anti-IGF-IR and/or anti-insulin/IGF-I hybrid receptors antibodies and uses thereof” (Pierre Fabre Medicament, priority 2002, dated 2012)
“Also recorded” adds a separate entry of the source.

Assays:
[1] = system: MCF-7 cells; test: IGF2-induced proliferation of MCF-7 cells; type: cell-based, human; conditions: IGF2 200 ng/ml; MAb 10 μg/ml
Method: As indicated above, IGF-IR is overexpressed by numerous tumors but it has furthermore been described that in a good part of the cancers of the breast and of the colon especially, the proliferation signal is given to this receptor via IGF2 (sometimes written IGF-II or IGFII). […] In order to do this, cells were inoculated into 96-well plates, deprived of fetal calf serum and stimulated by the addition of 200 ng of IGF2 per ml, final concentration, of medium, in the presence and in the absence of the MAb to be tested introduced at a concentration of 10 μg/ml.

[2] = system: SK-ES-1 tumor; test: SK-ES-1 osteosarcoma xenograft; type: in vivo, nude mice; conditions: 250 μg/dose/mouse twice per week i.p.
Method: (§1) In these 4 models, the treatment was carried out twice per week i.p. at a rate of 250 μg/dose/mouse.

[3] = system: BxPC3 tumor; test: BxPC3 pancreatic cancer xenograft; type: in vivo, nude mice; conditions: 250 μg/dose/mouse twice per week i.p.
Method: as §1

[4] = system: A549 cells implanted intrapleurally; test: Orthotopic (intrapleural) A549 model, survival; conditions: 10^6 A549 cells intrapleural; Example 3b: 500 μg/mouse challenge then 250 μg twice per week
Method: In order to evaluate our antibody in a model closer to reality, the A549 cells were implanted in an intrapleural location. […] In the study which was carried out, 10^6 A549 cells were injected intrapleurally into female nude mice. 7 days after implantation, the mice were divided into 2 batches of 22.
In order to evaluate the antitumor activity of an antibody mixture directed respectively against IGF-IR and EGFR, 10^6 A549 cells (non-small cell lung cancer) were implanted in the intrapleural cavity of nude mice.
For the combined therapy, antibodies were mixed prior to the injection.
The T/C % are calculated according the following formula, [MEDIAN OF TREATED MICE/MEDIAN OF CONTROL MICE×100].

“7C10: murine monoclonal anti-IGF-IR IgG1 secreted by the hybridoma deposited at the CNCM under the number I-2717” was tested, and the “inhibition of IGF2-induced growth of MCF-7 cells” value [1] was “totally inhibits the growth induced by IGF2; also recorded: significantly better than that of 1H7”, the “antitumor activity in SKES-1 osteosarcoma model” value [2] was “significant activity” and the “antitumor activity in BxPC3 model” value [3] was “significant activity”. For the same substance, the “survival of mice orthotopically implanted with A549 cells” value [4] was “significant extension of survival; also recorded: comparable and a significant gain in survival”.
